Measurements taken from patent US20250186329A1, “A SKIN BRIGHTENING COMPOSITION” (Conopco, Inc., d/b/a UNILEVER, priority 2022, published 2025).
Marks after values point to notes of the source that are not given here.

system: co-cultures of HaCaT keratinocytes and melanocytes (neonatal primary human epidermal melanocytes); assay: Melanin content assay (% cellular melanin vs control) in keratinocyte/melanocyte co-cultures; assay type: cell-based; details: percentage cellular melanin vs control; 72 h of active treatment; OD at 405 nm; active concentrations (wt %) as given per example
Description: Various samples containing actives were prepared and the % cellular melanin content was measured. The protocol for measuring the cellular melanin is summarized below:
Neonatal primary human epidermal melanocytes were sourced from Life Technologies. Melanocytes were maintained in Medium 254 supplemented with human melanocyte growth supplement (MGM). HaCaT keratinocytes were maintained in DMEM medium containing 10% heat inactivated FBS. All media were also supplemented with 10 U/mL penicillin G and 0.1 mg/mL streptomycin sulphate. Both cell types were maintained at 37° C. in a humidified incubator with 5% CO2 atmosphere. Maintenance and sub-culturing of cells were carried out as per the manufacturer's instructions.
For setup of co-cultures, 40,000 cells each of HaCaT keratinocytes and melanocytes were mixed in 1 mL of a 1:1 mix of MGM:KGM (KGM: Epilife medium supplemented with human keratinocyte growth supplement) and seeded as such per well, in 12 well Nunc plates.
Actives were prepared in media and test concentrations were added to cells along with relevant controls 24 h post seeding. After 72 h of active treatment, cell viability (using calcein method) and measurement of cellular melanin content was determined as described below.
After calcein fluorescence readings were obtained, cells were drained and fresh 0.15 mL of 1N NaOH (in 10% DMSO) per well was added. Cells were lysed by resuspension and incubation (60° C. for 1 h). Then, 0.1 mL of this lysate was transferred to a fresh 384-well plate and OD was measured at 405 nm in a TECAN M1000 plate reader. Melanin content was calculated as percentage cellular melanin vs control.

Compound	% cellular melanin
Inulin [Example C]	96%
CCCCCCc1ccc(O)cc1O [Example E, 4-hexyl resorcinol, reference compound]	69* %
Inulin [B]	86%
